Consider eleven compounds from US20240116985A1, “STAPLED PEPTIDES AND METHODS THEREOF” (priority 2020, published 2024).

The data set in a line: CHI Log D procedure. In kind it is physicochemical. As to conditions: for CHI Log D: pH 7.4; for chromatographic logD: pH 7.4, CHI Log D.

Regarding `CC(=O)N[C@@H](Cc1ccccc1)C(=O)N[C@@H](CC(=O)O)C(=O)N[C@@H](C)C(=O)N[C@]1(C)CCCCCCC=CCOC(=O)N2CC[C@@](C(=O)N[C@@H](Cc3ccccc3)C(=O)N[C@@H](Cc3c[nH]c4ccccc34)C(=O)N[C@@H](CCC(N)=O)C(N)=O)(C2)NC(=O)[C@H](C(C)C)NC(=O)[C@H](Cc2ccccc2)NC(=O)[C@H](CCC(=O)O)NC(=O)[C@H](C)NC(=O)[C@H](CC(=O)O)NC(=O)[C@H](CC(=O)O)NC1=O` (single isomer, unassigned) [I-22, Ac-Phe-Asp-Ala-R8-Asp-Asp-Ala-Glu-Phe-Val-PyrS-Phe-Trp-Gln-NH2], the “CHI Log D” value was 0.911.

Consider `CC(=O)N[C@@H](Cc1ccccc1)C(=O)N[C@@H](CC(=O)O)C(=O)N[C@@H](C)C(=O)N[C@]1(C)CCCN(C)C(=O)OCC=CCCCC[C@@](C)(C(=O)N[C@@H](Cc2ccccc2)C(=O)N[C@@H](Cc2c[nH]c3ccccc23)C(=O)N[C@@H](CCC(N)=O)C(N)=O)NC(=O)[C@H](C(C)C)NC(=O)[C@H](Cc2ccccc2)NC(=O)[C@H](C)NC(=O)[C@H](C)NC(=O)[C@H](CC(=O)O)NC(=O)[C@H](CC(=O)O)NC1=O` (single isomer, unassigned) [I-29, Ac-Phe-Asp-Ala-ReN-Asp-Asp-Ala-Ala-Phe-Val-S6-Phe-Trp-Gln-NH2], for which the chromatographic logD is 1.6.

Compound `CC(=O)N[C@@H](Cc1ccccc1)C(=O)N[C@@H](CC(=O)O)C(=O)N[C@@H](C)C(=O)N[C@]1(C)CCCCCCC=CCOC(=O)N2CC(C(=O)N[C@@H](Cc3ccccc3)C(=O)N[C@@H](Cc3c[nH]c4ccccc34)C(=O)N[C@@H](CCC(N)=O)C(N)=O)(C2)NC(=O)[C@H](C(C)C)NC(=O)[C@H](Cc2ccccc2)NC(=O)[C@H](C)NC(=O)[C@H](C)NC(=O)[C@H](CC(=O)O)NC(=O)[C@H](CC(=O)O)NC1=O` (single isomer, unassigned) [I-39, Ac-Phe-Asp-Ala-R8-Asp-Asp-Ala-Ala-Phe-Val-Az-Phe-Trp-Gln-NH2] had a chromatographic logD of 1.26.

As for `CC(=O)N[C@@H](Cc1ccccc1)C(=O)N[C@@H](CC(=O)O)C(=O)N[C@@H](C)C(=O)N[C@]1(C)CCCCCCC=CCOC(=O)N2CC(C(=O)N[C@@H](Cc3ccccc3)C(=O)N[C@@H](Cc3c[nH]c4ccccc34)C(=O)N[C@@H](CCC(N)=O)C(N)=O)(C2)NC(=O)[C@H](C(C)C)NC(=O)[C@H](Cc2ccccc2)NC(=O)[C@H](C)NC(=O)[C@H](C)NC(=O)[C@H](CC(=O)O)NC(=O)[C@H](CC(=O)O)NC1=O` (single isomer, unassigned) [I-40, Ac-Phe-Asp-Ala-R8-Asp-Asp-Ala-Ala-Phe-Val-Az-Phe-Trp-Gln-NH2], the “CHI Log D” value is reported as 1.243.

The compound `CC(=O)N[C@@H](Cc1ccccc1)C(=O)N[C@@H](CC(=O)O)C(=O)N[C@@H](C)C(=O)N[C@]1(C)CCN(C)C(=O)OCC=CCC[C@@](C)(C(=O)N[C@@H](Cc2ccccc2)C(=O)N[C@@H](Cc2c[nH]c3ccccc23)C(=O)N[C@@H](CCC(N)=O)C(N)=O)NC(=O)[C@H](C(C)C)NC(=O)[C@H](Cc2ccccc2)NC(=O)[C@H](C)NC(=O)[C@H](C)NC(=O)[C@H](CC(=O)O)NC(=O)[C@H](CC(=O)O)NC1=O` (single isomer, unassigned) [I-41, Ac-Phe-Asp-Ala-RdN-Asp-Asp-Ala-Ala-Phe-Val-S4-Phe-Trp-Gln-NH2] returned a chromatographic logD of 1.09.

Consider `CC(=O)N[C@@H](Cc1ccccc1)C(=O)N[C@@H](CC(=O)O)C(=O)N[C@@H](C)C(=O)N[C@]1(C)CN(C)C(=O)OCC=CCCCCCC[C@@](C)(C(=O)N[C@@H](Cc2ccccc2)C(=O)N[C@@H](Cc2c[nH]c3ccccc23)C(=O)N[C@@H](CCC(N)=O)C(N)=O)NC(=O)[C@H](C(C)C)NC(=O)[C@H](Cc2ccccc2)NC(=O)[C@H](C)NC(=O)[C@H](C)NC(=O)[C@H](CC(=O)O)NC(=O)[C@H](CC(=O)O)NC1=O` (single isomer, unassigned) [I-43, Ac-Phe-Asp-Ala-RgN-Asp-Asp-Ala-Ala-Phe-Val-S8-Phe-Trp-Gln-NH2], for which the chromatographic logD came out at 1.31.

With `CC(=O)N[C@@H](Cc1ccccc1)C(=O)N[C@@H](CC(=O)O)C(=O)N[C@@H](C)C(=O)N[C@]1(C)CN(C)C(=O)OCC=CCCCCCC[C@@](C)(C(=O)N[C@@H](Cc2ccccc2)C(=O)N[C@@H](Cc2c[nH]c3ccccc23)C(=O)N[C@@H](CCC(N)=O)C(N)=O)NC(=O)[C@H](C(C)C)NC(=O)[C@H](Cc2ccccc2)NC(=O)[C@H](C)NC(=O)[C@H](C)NC(=O)[C@H](CC(=O)O)NC(=O)[C@H](CC(=O)O)NC1=O` (single isomer, unassigned) [I-44, Ac-Phe-Asp-Ala-RgN-Asp-Asp-Ala-Ala-Phe-Val-S8-Phe-Trp-Gln-NH2], the “CHI Log D” value was 1.312.

Compound `CC(=O)N[C@@H](Cc1ccccc1)C(=O)N[C@@H](CC(=O)O)C(=O)N[C@@H](C)C(=O)N[C@]1(C)CN(C)C(=O)OCC=CCCCCC[C@@](C)(C(=O)N[C@@H](Cc2ccccc2)C(=O)N[C@@H](Cc2c[nH]c3ccccc23)C(=O)N[C@@H](CCC(N)=O)C(N)=O)NC(=O)[C@H](C(C)C)NC(=O)[C@H](Cc2ccccc2)NC(=O)[C@H](C)NC(=O)[C@H](C)NC(=O)[C@H](CC(=O)O)NC(=O)[C@H](CC(=O)O)NC1=O` (single isomer, unassigned) [I-45, Ac-Phe-Asp-Ala-RgN-Asp-Asp-Ala-Ala-Phe-Val-S7-Phe-Trp-Gln-NH2] displayed a chromatographic logD of 1.21.

In the case of `CC(=O)N[C@@H](Cc1ccccc1)C(=O)N[C@@H](CC(=O)O)C(=O)N[C@@H](C)C(=O)N[C@]1(C)CN(C)C(=O)OCC=CCCCCC[C@@](C)(C(=O)N[C@@H](Cc2ccccc2)C(=O)N[C@@H](Cc2c[nH]c3ccccc23)C(=O)N[C@@H](CCC(N)=O)C(N)=O)NC(=O)[C@H](C(C)C)NC(=O)[C@H](Cc2ccccc2)NC(=O)[C@H](C)NC(=O)[C@H](C)NC(=O)[C@H](CC(=O)O)NC(=O)[C@H](CC(=O)O)NC1=O` (single isomer, unassigned) [I-46, Ac-Phe-Asp-Ala-RgN-Asp-Asp-Ala-Ala-Phe-Val-S7-Phe-Trp-Gln-NH2], the “CHI Log D” value is listed as 1.205.

Compound `CC(=O)N[C@@H](Cc1ccccc1)C(=O)N[C@@H](CC(=O)O)C(=O)N[C@]1(C)CCCCCCC=CCCC[C@@](C)(C(=O)N[C@@H](C)C(=O)N[C@@H](Cc2ccccc2)C(=O)N[C@@H](Cc2c[nH]c3ccccc23)C(=O)N[C@@H](CCC(N)=O)C(N)=O)NC(=O)[C@H](Cc2ccccc2)NC(=O)[C@H](C)NC(=O)[C@H](C)NC(=O)[C@H](CC(=O)O)NC(=O)[C@H](CC(=O)O)NC(=O)[C@H](C)NC1=O` (single isomer, unassigned) [I-47, Ac-Phe-Asp-R8-Ala-Asp-Asp-Ala-Ala-Phe-S5-Ala-Phe-Trp-Gln-NH2] came in with a chromatographic logD of 1.28.

For the compound `CC(=O)N[C@@H](Cc1ccccc1)C(=O)N[C@@H](CC(=O)O)C(=O)N[C@]1(C)CCCCCCC=CCCC[C@@](C)(C(=O)N[C@@H](C)C(=O)N[C@@H](Cc2ccccc2)C(=O)N[C@@H](Cc2c[nH]c3ccccc23)C(=O)N[C@@H](CCC(N)=O)C(N)=O)NC(=O)[C@H](Cc2ccccc2)NC(=O)[C@H](C)NC(=O)[C@H](C)NC(=O)[C@H](CC(=O)O)NC(=O)[C@H](CC(=O)O)NC(=O)[C@H](C)NC1=O` (single isomer, unassigned) [I-48, Ac-Phe-Asp-R8-Ala-Asp-Asp-Ala-Ala-Phe-S5-Ala-Phe-Trp-Gln-NH2], the “CHI Log D” value amounted to 1.37.
